These results are taken from publication PMC9617622 (Journal of medicinal chemistry, 2021).

In test [1] the target is T1, D3R (Homo sapiens, UniProt P35462). The note with it: for binding affinity at D3R (in words) / D2R/D3R preference (in words): result in words; for decrease in binding affinity at D3R compared to eticlopride: relative to eticlopride; for D2R/D3R preference (in words): D3R v. D2R binding; for Ki difference, O-alkylated v. N-alkylated linker with the same SP: D3R, 48 v. 15 and 49 v. 13.
T1 sequence (P35462 whole entry): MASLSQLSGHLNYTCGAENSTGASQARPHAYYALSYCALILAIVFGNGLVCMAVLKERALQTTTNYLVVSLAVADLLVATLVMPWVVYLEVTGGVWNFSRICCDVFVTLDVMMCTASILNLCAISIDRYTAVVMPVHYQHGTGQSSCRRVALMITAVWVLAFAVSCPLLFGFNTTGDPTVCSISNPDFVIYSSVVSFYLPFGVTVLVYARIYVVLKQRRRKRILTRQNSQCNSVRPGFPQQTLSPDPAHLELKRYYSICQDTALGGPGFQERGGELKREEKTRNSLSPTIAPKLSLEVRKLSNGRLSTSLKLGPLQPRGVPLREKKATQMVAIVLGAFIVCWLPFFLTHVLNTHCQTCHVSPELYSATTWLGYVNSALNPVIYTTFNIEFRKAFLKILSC

Another test deals with human D2L receptor (Homo sapiens, UniProt P14416). The note with it: for binding affinity at D2R (in words): result in words; for decrease in binding affinity at D2R compared to eticlopride: relative to eticlopride.
Sequence of human D2L receptor (P14416 whole entry): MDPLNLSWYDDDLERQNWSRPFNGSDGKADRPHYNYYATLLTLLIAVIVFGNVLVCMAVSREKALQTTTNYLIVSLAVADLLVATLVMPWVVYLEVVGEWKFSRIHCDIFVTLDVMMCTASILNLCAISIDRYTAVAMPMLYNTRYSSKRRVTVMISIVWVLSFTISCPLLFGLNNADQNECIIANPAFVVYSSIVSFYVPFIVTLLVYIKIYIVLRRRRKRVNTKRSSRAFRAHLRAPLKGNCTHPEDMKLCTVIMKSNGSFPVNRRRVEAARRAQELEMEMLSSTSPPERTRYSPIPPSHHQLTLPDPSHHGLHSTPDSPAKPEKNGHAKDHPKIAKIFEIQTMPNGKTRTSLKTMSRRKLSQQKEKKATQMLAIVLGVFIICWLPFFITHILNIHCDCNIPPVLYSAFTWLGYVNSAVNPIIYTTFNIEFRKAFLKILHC
For test [2], the target named is T1, D3R. The note with it: result in words; compared to full agonist quinpirole and antagonist eticlopride.

Turning to `CCc1cc(Cl)c(OC)c(C(=O)NC[C@@H]2C[C@@H](OCCCc3ccccc3)CN2)c1O` [50a, 3-Chloro-5-ethyl-6-hydroxy-2-methoxy-N-(((2S,4R)-4-(3-phenylpropoxy)pyrrolidin-2-yl)methyl)benzamide], at D3R [1], the “binding affinity at D3R (in words)” value is on record as “low nanomolar range”. Moreover, the “binding affinity at D2R (in words)” value on human D2L receptor is on record as “low nanomolar range”.
With `CCc1cc(Cl)c(OC)c(C(=O)NC[C@@H]2C[C@@H](OCCCCOCc3ccccc3)CN2)c1O` [50b, N-(((2S,4R)-4-(4-(Benzyloxy)butoxy)pyrrolidin-2-yl)methyl)-3-chloro-5-ethyl-6-hydroxy-2-methoxybenzamide], the “binding affinity at D3R (in words)” value at D3R [1] is “low nanomolar range”. The “binding affinity at D2R (in words)” value on human D2L receptor is listed as “low nanomolar range”.
With `CCc1cc(Cl)c(OC)c(C(=O)NC[C@@H]2CCCN2)c1O.Cl` [compound 5, (S)-3-chloro-5-ethyl-6-hydroxy-2-methoxy-N-(pyrrolidin-2-ylmethyl)benzamide hydrochloride, reference compound], the “decrease in binding affinity at D3R compared to eticlopride” value on D3R [1] was 4 fold. Also, on human D2L receptor, the “decrease in binding affinity at D2R compared to eticlopride” value is on record as 19 fold.
On the same counts, the results for `CCCN1CCC[C@H]1CNC(=O)c1c(O)c(CC)cc(Cl)c1OC` [compound 6, (S)-3-Chloro-5-ethyl-6-hydroxy-2-methoxy-N-((1-propylpyrrolidin-2-yl)methyl)benzamide] are 2.6 fold and 6 fold.
The matching figures for `CCc1cc(Cl)c(OC)c(C(=O)NC[C@@H]2CCCN2Cc2ccccc2)c1O` [compound 7, (S)-N-((1-Benzylpyrrolidin-2-yl)methyl)-3-chloro-5-ethyl-6-hydroxy-2-methoxybenzamide]: 268 fold and 1800 fold.
Turning to `CCc1cc(Cl)c(OC)c(C(=O)NC[C@@H]2CCCN2Cc2ccccc2)c1OCc1ccccc1` [compound 8, (S)-2-(Benzyloxy)-N-((1-benzylpyrrolidin-2-yl)methyl)-5-chloro-3-ethyl-6-methoxybenzamide], the “binding affinity at D3R (in words)” value at D3R [1] was “low affinity”. For the same compound, the “binding affinity at D2R (in words)” value on human D2L receptor is “low affinity”.
In the case of `CCc1cc(Cl)c(OC)c(C(=O)NC[C@@H]2CCCN2CCc2c(C)nc3n(c2=O)CCCC3)c1O` [compound 10, (S)-3-Chloro-5-ethyl-6-hydroxy-2-methoxy-N-((1-(2-(2-methyl-4-oxo-6,7,8,9-tetrahydro-4H-pyrido[1,2-a]pyrimidin-3-yl)ethyl)pyrrolidin-2-yl)methyl)benzamide], the “D2R/D3R preference (in words)” value at D3R [1] is “equiactive at D2R and D3R”.
For the compound `CCc1cc(Cl)c(OC)c(C(=O)NC[C@@H]2CCCN2CCCCOc2ccc3c(c2)NC(=O)CC3)c1O` [compound 11, (S)-3-Chloro-5-ethyl-6-hydroxy-2-methoxy-N-((1-(4-((2-oxo-1,2,3,4-tetrahydroquinolin-7-yl)oxy)butyl)pyrrolidin-2-yl)methyl)benzamide], on D3R [1] (ratio of Ki D2R to Ki D3R), the “preference for D3R v. D2R” value turned out to be 3.6 fold.
On to `CCc1cc(Cl)c(OC)c(C(=O)NC[C@@H]2CCCN2CCCCNC(=O)c2cc3ccccc3o2)c1O` [compound 13, (S)-N-(4-(2-((3-Chloro-5-ethyl-6-hydroxy-2-methoxybenzamido)methyl)pyrrolidin-1-yl)butyl) benzofuran-2-carboxamide], for which the “D2R/D3R preference (in words)” value at D3R [1] was “modest D3R preference was not seen”.
For `CCc1cc(Cl)c(OC)c(C(=O)NC[C@@H]2C[C@@H](OCCCCNC(=O)c3cc4ccccc4[nH]3)CN2CC)c1O` [compound 48, N-(4-(((3R,5S)-5-((3-Chloro-5-ethyl-6-hydroxy-2-methoxybenzamido)methyl)-1-ethylpyrrolidin-3-yl)oxy)butyl)-1H-indole-2-carboxamide], the “Ki difference, O-alkylated v. N-alkylated linker with the same SP” value on D3R [1] is listed as ~ 56 fold.
As for `CCc1cc(Cl)c(OC)c(C(=O)NC[C@@H]2C[C@@H](OCCCCNC(=O)c3cc4ccccc4o3)CN2CC)c1O` [compound 49, N-(4-(((3R,5S)-5-((3-chloro-5-ethyl-6-hydroxy-2-methoxybenzamido)methyl)-1-ethylpyrrolidin-3-yl)oxy)butyl)benzofuran-2-carboxamide], the “Ki difference, O-alkylated v. N-alkylated linker with the same SP” value on D3R [1] is given as ~ 31 fold.
`CCc1cc(Cl)c(OC)c(C(=O)NC[C@@H]2C[C@@H](OCCCCO)CN2)c1O` [compound 51, 3-Chloro-5-ethyl-6-hydroxy-N-(((2S,4R)-4-(4-hydroxybutoxy)pyrrolidin-2-yl)methyl)-2-methoxybenzamide]: the “binding affinity at D3R (in words)” value at D3R [1] is recorded as “low nanomolar range”. Also, the “binding affinity at D2R (in words)” value on human D2L receptor was “low nanomolar range”.
For `CCc1cc(Cl)c(OC)c(C(=O)NC[C@@H]2CCCN2CC)c1O` [eticlopride], the “functional efficacy at D3R (Go BRET activation)” value on D3R [2] is on record as “reference antagonist”.
